Results on 26 molecules are retold here after patent EP4585599A1, “NITROGEN-CONTAINING FUSED RING COMPOUND, INTERMEDIATE THEREOF, PREPARATION METHOD THEREFOR AND USE THEREOF” (Hangzhou Synrx Therapeutics Biomedical Technology Co., Ltd., priority 2022, dated 2024).

pIC50: −log10 of the molar value. Where two headings read alike, the source gives them in different places.

A short description of one test: cells. The note with it: Homo sapiens, DLD-1, 240 h.
In test [1] the target is T1, helicase domain of the Pol θ protein (Homo sapiens, UniProt O75417).
T1 construct: The helicase domain of the Pol θ protein was purified from insect protein expression system; made in house; host or cells: insect protein expression system
The test can be described thus: Biochemical Activity Assay (ADP Glo Assay) of Pol θ inhibitor, ATPase activity. The note with it: ssDNA substrate, read-out: Biochemical assay IC50.

The mark [2] stands for this setting: read-out: Cell viability assay IC50 (nM), CTG assay, CellTiter Glo, read on Day 10, cell line not given.
Setting [3] is: read-out: Cell viability assay IC50 (nM), CTG on Day 10, cell line not given (method: DLD1 and DLD1^-/- cells).
Where [4] appears, read: ADP-Glo assay, ATPase activity of Pol θ helicase domain.
Where [5] appears, read: ADP-Glo, 60 min at room temperature.

T1 sequence (O75417 102-554 limits assumed): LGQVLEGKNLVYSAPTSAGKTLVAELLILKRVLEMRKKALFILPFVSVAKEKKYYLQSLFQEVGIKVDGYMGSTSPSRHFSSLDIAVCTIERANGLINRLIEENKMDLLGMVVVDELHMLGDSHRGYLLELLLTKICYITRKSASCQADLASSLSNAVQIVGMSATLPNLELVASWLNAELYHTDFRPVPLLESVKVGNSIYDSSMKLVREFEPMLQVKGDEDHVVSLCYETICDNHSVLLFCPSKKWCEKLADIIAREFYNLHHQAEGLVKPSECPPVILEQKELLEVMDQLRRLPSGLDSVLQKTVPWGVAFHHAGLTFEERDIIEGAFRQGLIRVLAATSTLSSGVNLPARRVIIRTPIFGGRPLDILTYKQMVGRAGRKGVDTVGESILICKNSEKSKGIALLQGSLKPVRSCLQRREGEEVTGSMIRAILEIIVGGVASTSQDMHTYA

For the molecule `COc1cnc(Cl)cc1-c1cc(C)ncc1C(=O)Nc1nc2ncc(C3CCOCC3)cc2s1` [Example 37], the IC50 in “cells” (setting [2]) was 44.7 nM; in the test “cells” (setting [3]), less than 100 nM. Moreover, the results for the pIC50 in test [1] (setting [4]) and in test [1] (setting [5]) were 8.36 and more than 7.30, respectively.
Consider `COc1cnc(Cl)cc1-c1cc(C)ncc1C(=O)Nc1nc2ccc(N3CCC(O)C3)nc2s1` (centres unmarked) [Example 47], for which the IC50 in the test “cells” (setting [2]) is 631 nM; in the test “cells” (setting [3]), 500 to 1000 nM. The pIC50 was 7.28 in test [1] (setting [4]) and 6.70 to 7.30 in test [1] (setting [5]).
On the same counts, the results for `COc1cnc(Cl)cc1-c1cc(C)ncc1C(=O)Nc1nc2ccc(N3CCC(C)(O)CC3)cc2s1` [Example 48] are 165 nM, 100 to 500 nM, 7.58 and more than 7.30.
For `COc1cnc(Cl)c(F)c1-c1cc(C)ncc1C(=O)Nc1nc2ncc(N3CCOCC3)cc2s1` [Example 49], in that order: 54.1 nM, less than 100 nM, 8.12 and more than 7.30.
On the same counts, the results for `COc1cnc(Cl)cc1-c1cc(C)ncc1C(=O)Nc1nc2ncc(N3CCS(=O)(=O)CC3)cc2s1` [Example 50] are 541 nM, 500 to 1000 nM, 8.08 and more than 7.30.
Consider `COc1cnc(Cl)cc1-c1cc(C)ncc1C(=O)Nc1nc2cnc(N3CCC(O)CC3)cc2s1` [Example 51], for which the 50% inhibitory concentration (IC50) in the test “cells” (setting [2]) is 85.8 nM; in the test “cells” (setting [3]), less than 100 nM. Further, the pIC50 in test [1] (setting [4]) was 8.02; in test [1] (setting [5]), more than 7.30.
For `COc1cnc(Cl)cc1-c1cc(C)ncc1C(=O)Nc1nc2cnc(N3CCC(O)CC3)nc2s1` [Example 52], in that order: 20.7 nM, less than 100 nM, 8.58 and more than 7.30.
Regarding `COc1cnc(Cl)c(F)c1-c1cc(C)ncc1C(=O)Nc1nc2ccc(N3CCC(O)CC3)nc2s1` [Example 53], the IC50 in the test “cells” (setting [2]) was 9.38 nM; in the test “cells” (setting [3]), less than 100 nM. Moreover, the pIC50 was 8.71 in test [1] (setting [4]) and more than 7.30 in test [1] (setting [5]).
For `COc1cnc(Cl)cc1-c1cc(C)ncc1C(=O)Nc1nc2ccc(C3=CCC(O)CC3)nc2[nH]1` (centres unmarked) [Example 56, 2'-chloro-N-(5-(4-hydroxycyclohex-1-en-1-yl)-3H-imidazo[4,5-b]pyridin-2-yl)-5'-methox y-6-methyl-[4,4'-bipyridine]-3-carboxamide], in that order: 9620 nM, more than 1000 nM, 6.65 and 6.30 to 6.70.
For `COc1cnc(Cl)cc1-c1cc(C)ncc1C(=O)Nc1nc2ncc(N3CCC(NC(C)=O)CC3)cc2s1` [Example 57, N-(6-(4-acetaminopiperidin-1-yl)thiazolo[4,5-b]pyridin-2-yl)-2'-chloro-5'-methoxy-6-me thyl-[4,4'-bipyridine]-3-carboxamide], in that order: 126 nM, 100 to 500 nM, 8.60 and more than 7.30.
Consider `COc1cnc(Cl)cc1-c1cc(C)ncc1C(=O)Nc1nc2ncc(N3CCC(N)CC3)cc2s1` [Example 58], for which the IC50 is 3420 nM in “cells” (setting [2]) and more than 1000 nM in the test “cells” (setting [3]). Moreover, the pIC50 was 7.96 in test [1] (setting [4]) and more than 7.30 in test [1] (setting [5]).
On the same counts, the results for `COc1cnc(Cl)cc1-c1cc(C)ncc1C(=O)Nc1nc2ncc(N3CCC(O)CC3)cc2s1` [Example 59] are 82.5 nM, less than 100 nM, 8.44 and more than 7.30.
On the same counts, the results for `COc1cnc(Cl)cc1-c1cc(C)ncc1C(=O)Nc1nc2ncc(N3CCC(CO)C3)cc2s1` (centres unmarked) [Example 60] are 501 nM, 100 to 500 nM, 8.00 and more than 7.30.
Consider `COc1cnc(Cl)cc1-c1cc(C)ncc1C(=O)Nc1nc2ncc(N3CC4CC(O)CC4C3)cc2s1` (centres unmarked) [Example 61], for which the figures for the IC50 in “cells” (setting [2]) and in the test “cells” (setting [3]) were 141 nM and 100 to 500 nM, respectively. Further, the values for the pIC50 in test [1] (setting [4]) and in test [1] (setting [5]) were 7.98 and more than 7.30, respectively.
For the molecule `COc1cnc(Cl)cc1-c1cc(C)ncc1C(=O)Nc1nc2ncc(N3CC4CC3CC4O)cc2s1` (centres unmarked) [Example 62], the IC50 in the test “cells” (setting [2]) is 631 nM; in the test “cells” (setting [3]), 100 to 500 nM. The pIC50 in test [1] (setting [4]) is 7.77; in test [1] (setting [5]) it was more than 7.30.
For `COc1cnc(Cl)cc1-c1cc(C)ncc1C(=O)Nc1nc2ncc(NS(C)(=O)=O)cc2s1` [Example 63], in that order: 1710 nM, more than 1000 nM, 8.25 and more than 7.30.
Consider `COc1cnc(Cl)cc1-c1cc(C)ncc1C(=O)Nc1nc2ncc(N3CCCC(O)CC3)cc2s1` (centres unmarked) [Example 64], for which the IC50 is 681 nM in the test “cells” (setting [2]) and 500 to 1000 nM in “cells” (setting [3]). The pIC50 in test [1] (setting [4]) was 7.60; in test [1] (setting [5]), more than 7.30.
For `COc1cnc(Cl)cc1-c1cc(C)ncc1C(=O)Nc1nc2ncc(N3CCN(S(C)(=O)=O)CC3)cc2s1` [Example 65], the values for the IC50 in the test “cells” (setting [2]) and in “cells” (setting [3]) were 42.2 nM and less than 100 nM, respectively. The negative logarithm of the IC50 (pIC50) in test [1] (setting [4]) is 8.57; in test [1] (setting [5]) it was more than 7.30.
For `COc1cnc(Cl)cc1-c1cc(C)ncc1C(=O)Nc1nc2ncc(N3CCC(OC)CC3)cc2s1` [Example 66], in that order: 192 nM, 100 to 500 nM, 8.30 and more than 7.30.
On the same counts, the results for `COc1cnc(Cl)cc1-c1cc(C)ncc1C(=O)Nc1nc2ncc(N3CCC(O)C(C)C3)cc2s1` (centres unmarked) [Example 67] are 46.4 nM, less than 100 nM, 8.21 and more than 7.30.
Regarding `COc1cnc(Cl)cc1-c1cc(C)ncc1C(=O)Nc1nc2ncc(N3CCC(NS(C)(=O)=O)CC3)cc2s1` [Example 68], the IC50 in “cells” (setting [2]) is 1120 nM; in “cells” (setting [3]), more than 1000 nM. Besides, the values for the pIC50 in test [1] (setting [4]) and in test [1] (setting [5]) were 8.86 and more than 7.30, respectively.
`COc1cnc(Cl)cc1-c1cc(C)ncc1C(=O)Nc1nc2ncc(NC3CCN(S(C)(=O)=O)CC3)cc2s1` [Example 69]: the results for the IC50 in the test “cells” (setting [2]) and in “cells” (setting [3]) were 92.6 nM and less than 100 nM, respectively. For the same molecule, the pIC50 is 8.37 in test [1] (setting [4]) and more than 7.30 in test [1] (setting [5]).
On the same counts, the results for `COc1cnc(Cl)cc1-c1cc(C)ncc1C(=O)Nc1nc2ncc(N3CCCC(O)C3)cc2s1` (centres unmarked) [Example 71] are 142 nM, 100 to 500 nM, 8.35 and more than 7.30.
For `COc1cnc(Cl)cc1-c1cc(C)ncc1C(=O)Nc1nc2ncc(N3CCC(N(C)C)CC3)cc2s1` [Example 72], in that order: 190 nM, 100 to 500 nM, 8.50 and more than 7.30.
On the same counts, the results for `CNC1CCN(c2cnc3nc(NC(=O)c4cnc(C)cc4-c4cc(Cl)ncc4OC)sc3c2)CC1` [Example 73] are 209 nM, 100 to 500 nM, 8.78 and more than 7.30.
Take `COc1cnc(Cl)cc1-c1cc(C)ncc1C(=O)Nc1nc2ncc(N3CCC(NC(=O)C4(C)CC4)CC3)cc2s1` [Example 74]: the values for the IC50 in “cells” (setting [2]) and in “cells” (setting [3]) were 383 nM and 100 to 500 nM, respectively. Moreover, the pIC50 in test [1] (setting [4]) was 8.19; in test [1] (setting [5]), more than 7.30.
